Experimental data published in patent US9534221B2, “Targeting the steroidogenic pathway for treating and/or preventing allergic diseases” (National Jewish Health, priority 2013, dated 2017).
“And” between values parts separate entries of the source, which are not always exact repeats. Equal values may be shown once.

Experiments:
Cyp11a1 = assay: Immunoblot analysis of Cyp11a1 protein in CD8+ T cells; type: cell-based, mouse; details: IL-2+IL-4, 500 μM AMG, with or without SIINFEKL re-stimulation
Experimental: In brief, mononuclear cells (MNCs) were processed from the spleens of OT-1 mice followed by stimulation of 1 μg/ml [sequence] peptide (SEQ ID NO:1) was used to stimulate cells for 1.5 hours. Two days after culture, living cells were re-isolated using histopaque and cultured in complete RPMI 1640 medium that contained recombinant mouse IL-2 (20 ng/ml) (R&D, Minneapolis, Minn.) or IL-2+IL-4 (20 ng/ml) (Peprotech, Rocky Hill, N.J.). For some experiments, AMG was added into the medium together with IL-2 or IL-2+IL-4. Medium with cytokines was changed every day for a further 4 days. The cells were then re-stimulated with 1 μg/ml [sequence] (SEQ ID NO:1) in medium containing 2 μM monensin (Calbiochem, La Jolla, Calif.) for 4 hours.
CD8^+ T cells (5×10^6) were lysed with RIPA buffer containing Hale™ protease and phosphatase inhibitor cocktail (Thermo Scientific, Rockford, Ill.) on ice for 30 minutes. Samples were run by sodium dodecyl sulfate polyacrylamide gel electrophoresis (SDS-PAGE) and transferred to nitrocellulose membranes. […] Immunoreactive bands of Western blottings were quantified by densitometric quantification of autoradiographs using Image J (NIMH, Bethesda, Md.), and expressed as relative Cyp11a1 normalized by β-actin.

CD8+ T cells = assay: Flow cytometric intracellular staining of IFN-γ and IL-13 in CD8+ T cells; type: cell-based, mouse
Experimental: CD8^+ effector memory T cells were generated in vitro as previously described (Miyahara, N. et al. J. Immunol. 172, 2549-2558 (2004); Miyahara, N. et al. J. Immunol. 174, 4979-4984 (2005)). In brief, mononuclear cells (MNCs) were processed from the spleens of OT-1 mice followed by stimulation of 1 μg/ml SIINFEKL peptide (SEQ ID NO:1) was used to stimulate cells for 1.5 hours. Two days after culture, living cells were re-isolated using histopaque and cultured in complete RPMI 1640 medium that contained recombinant mouse IL-2 (20 ng/ml) (R&D, Minneapolis, Minn.) or IL-2+IL-4 (20 ng/ml) (Peprotech, Rocky Hill, N.J.). For some experiments, AMG was added into the medium together with IL-2 or IL-2+IL-4. Medium with cytokines was changed every day for a further 4 days. The cells were then re-stimulated with 1 μg/ml SIINFEKL (SEQ ID NO:1) in medium containing 2 μM monensin (Calbiochem, La Jolla, Calif.) for 4 hours. […]
For intracellular staining, 1×10^6/ml cells were washed twice with PBS containing 1% BSA, stimulated with 1 μg/ml SIINFEKL in the presence of 2 μM monensin at 37° C. for 4 hours. After fixation with 4% paraformaldehyde (Electron Microscopy Sciences, Hatfield, Pa.) and permeabilization with 0.1% saponin (Sigma, St. Louis, Mo.), cells were washed twice with PBS containing 1% BSA, then incubated with anti-mouse CD16/CD32 (2.4G2) (BD Bioscience, San Jose, Calif.) at 4° C. for 5 minutes, then stained with FITC labeled anti-mouse IFN-γ (XMG 1.2) (eBioscience, San Diego, Calif.) or PerCP-Cy5.5 labeled anti-mouse […] (XMG 1.2) (eBioscience) and PE-labeled anti-mouse IL-13 (eBio13A) (eBioscience). For some experiments, fixed cells were stained with biotin labeled rabbit anti-Cyp11a1/p450 cc polyclonal antibody (Bioss, Woburn, Mass.) followed by PE-Cy5 labeled streptavidin (PE-Cy5-SAv) (eBioscience). Cell staining was monitored on a FACSCalibur (BD Bioscience) and analyzed using Flowjo software (Tree Star, Inc, Ashland, Oreg.).

Balb/c mice = assay: Peanut-induced intestinal allergy model (PE sensitized and challenged mice); type: in vivo, mouse
Experimental: The experimental protocol for sensitization and challenge to peanut was previously described (Wang, M., et al. J. Allergy Clin. Immunol. 126, 306-316 (2010).
AMG was dissolved in 1 M hydrogen chloride and diluted with saline for in vivo studies or diluted with RPMI medium for in vitro study. The final concentration of 1 M hydrogen chloride was less than 1% and 0.05% for in vivo and in vitro, respectively. PE sensitized and challenged mice received different doses (5, 10, 20 mg/kg) of the Cyp11a1 enzyme inhibitor (PE/PE/AMG) by means of gavage using a 22-gauge feeding needle (Fisher Scientific) twice a day during the peanut challenge phase. Controls included PE sensitized and challenged but vehicle (saline) treated (PE/PE/vehicle), or sham sensitized but PE challenged and vehicle-treated (PBS/PE/vehicle) mice.
Anaphylactic symptoms were evaluated 30 minutes after the oral challenge, as previously reported (Li, X. M., et al. J. Allergy Clin. Immunol. 106:150-158 (2000)). Briefly, 0: no symptoms; 1: scratching and rubbing around the nose and head; 2: puffiness around the eyes and mouth, diarrhea, pilar erecti, reduced activity, and/or decreased activity with increased respiratory rate; 3: wheezing, labored respiration, and cyanosis around the mouth and the tail; 4: no activity after prodding or tremor and convulsion; and 5: death. Scoring of symptoms was performed in a blinded manner by an independent observer.
The jejunum was processed and stained with periodic acid-Schiff (PAS) and chloroacetate esterase for detection of mucosal mucus-containing cells and mast cells respectively, as previously described (Wang, M., et al. J. Allergy Clin. Immunol. 126, 306-316 (2010); Tomkinson, A., et al. Am. J. Respir. Crit. Care Med. 163, 721-730 (2001)). Numbers of mucosal cells expressing Cyp11a1 were identified by immunohistochemical (IHC) staining using anti-human Cyp11a1 antibody (Abcam, Cambridge, Mass.).
Serum peanut-specific IgE, IgG1, and IgG2a levels were measured by ELISA, as described previously (Payne, A. H. Biol. Reprod. 42, 399-404 (1990)).
Levels of histamine in plasma were measured using an enzyme immunoassay histamine kit (Beckman Coulter, Fullerton, Calif.), as described by the manufacturer. The concentration of histamine was calculated from a standard curve provided by the manufacturer.
RNA was extracted from jejunal tissue homogenates or from CD4 T cells cultured in vitro using Trizol (Invitrogen). cDNA was generated using the iScript cDNA synthesis kit (Bio-Rad Laboratories, Hercules, Calif.). Quantitative real-time PCR was performed on the ABI Prism 7300 sequence detection system (Applied Biosystems, Foster City, Calif.). All primers and probes used were purchased as Tagman Gene Expression Assays from Applied Biosystems. Fold change was calculated using the Delta Delta cycle threshold (ΔΔCT) method.

[1] = IL-2+AMG (500 μM)+SIINFEKL 1 μg/ml
[2] = IL-2+IL-4+AMG (500 μM), no SIINFEKL
[3] = SIINFEKL and IL-2+IL-4, different concentrations of AMG

CCC1(c2ccc(N)cc2)CCC(=O)NC1=O (stereo not drawn) [AMG, aminoglutethimide]
Cyp11a1 protein levels (immunoblot) (Cyp11a1): did not prevent IL-4-induced increases in Cyp11a1 protein levels
Overall suppressive or toxic effect on CD8+ T cell cultures (CD8+ T cells; AMG in culture): did not have an overall suppressive or toxic effect
IFN-γ single positive cells (CD8+ T cells; [1]): 78.3 +/− 8.3%
IFN-γ+IL13+ double positive cells (CD8+ T cells; [1]): 9.0 +/− 2.7%
IL-13 single positive cells (CD8+ T cells; [1]): 0.1 +/− 0.1%
IFN-γ+IL13+ double positive cells (CD8+ T cells; IL-2+IL-4+AMG (500 μM)+SIINFEKL, without AMG 8.8±2.3%): 14.7±5.5% and 14.7 +/− 5.5%
IFN-γ single positive cells (CD8+ T cells; IL-2+IL-4+AMG (500 μM)+SIINFEKL, without AMG 14.5±5.8%): 42.4±11.5%
IL-13 single positive cells (CD8+ T cells; IL-2+IL-4+AMG (500 μM)+SIINFEKL, without AMG 35.7±8.2%): 14.7±8.9%
IFN-γ single positive cells (CD8+ T cells; [2]): 0.9 +/− 0.5%
IL-13 single positive cells (CD8+ T cells; [2]): 2.3 +/− 1.5%
IFN-γ-positive cells, dose dependence (CD8+ T cells; [3]): increase in IFN-γ-positive cells
Percentage of IL-13-positive cells, dose dependence (CD8+ T cells; [3]): dramatic dose-dependent decrease in the percentage of IL-13-positive cells
Duration of the effects of AMG on CD8+ T cell conversion before the cells recovered (CD8+ T cells; initial studies): up to forty-eight hours
Clinical symptoms (Balb/c mice; 5 mg/kg): no observed inhibitory effects
Diarrhea occurrence (Balb/c mice; 5 mg/kg): no observed inhibitory effects
Diarrhea (Balb/c mice; 10 mg/kg): partially inhibited
Symptom scores (Balb/c mice; 10 mg/kg): partially inhibited
Numbers of mast cells in the mucosa of the small intestine (Balb/c mice; 20 mg/kg): markedly reduced
Numbers of mucus-producing goblet cells in the mucosa of the small intestine (Balb/c mice; 20 mg/kg): markedly reduced
Clinical symptom scores (Balb/c mice; 20 mg/kg, 30 minutes after oral challenge): significantly diminished
Development of diarrhea (Balb/c mice; 20 mg/kg, gavage twice a day during challenge phase): fully prevented
Cyp11a1 mRNA in the small intestine (Balb/c mice; AMG 20 mg/kg): did not affect
GATA3 mRNA expression in the small intestine (Balb/c mice; AMG 20 mg/kg): not affected
IL4 mRNA expression in the small intestine (Balb/c mice; AMG 20 mg/kg): reduced to baseline levels
IL13 mRNA expression in the small intestine (Balb/c mice; AMG 20 mg/kg): reduced to baseline levels
IL17A mRNA expression in the small intestine (Balb/c mice; AMG 20 mg/kg): reduced to baseline levels
Numbers of Cyp11a1-positive cells in the small intestine (Balb/c mice; AMG 20 mg/kg): did not affect
RORγt mRNA expression in the small intestine (Balb/c mice; AMG 20 mg/kg): not affected
T-bet mRNA expression in the small intestine (Balb/c mice; AMG 20 mg/kg): not affected
Plasma histamine levels (Balb/c mice; AMG 20 mg/kg, within 30 minutes of the last challenge): significantly lower
Serum peanut-specific IgE (Balb/c mice; AMG given after sensitization): unaffected
Serum peanut-specific IgG1 (Balb/c mice; AMG given after sensitization): unaffected
Serum peanut-specific IgG2a (Balb/c mice; AMG given after sensitization): unaffected
